What all share (details): Homo sapiens
Assay [1] can be described thus: Binding affinity to chymotrypsin (unknown origin) assessed as acetylation at pH 7.
Assay [2] is described as follows: Binding affinity to chymotrypsin (unknown origin) assessed as deacetylation.
Assay [3] in a line: Binding affinity to chymotrypsin (unknown origin).
Assay [4] can be described thus: Binding affinity to chymotrypsin (unknown origin) assessed as hydrolysis.

The text below walks through data of ChEMBL document CHEMBL3272151, “Quantitative structure-activity relationship of chymotrypsin-ligand interactions” (J Med Chem, 1977).

Turning to `O=C(Oc1ccc([N+](=O)[O-])cc1[N+](=O)[O-])c1cccc(F)c1`, the log K in assay [1] is 5.25.
Turning to `CCOC(=O)[C@@H](NC(C)=O)C(C)C`, the log K in assay [1] was -0.26; in assay [2], -0.68. The compound further came in with a log(1/Km) in assay [3] of 0.96. Further, the logKcat in assay [4] is -0.88.
Consider `CCc1ccc(C(=O)Oc2ccc([N+](=O)[O-])cc2[N+](=O)[O-])cc1`, for which the log K in assay [1] was determined as 5.53.
For `CCOC(=O)[C@H](Cc1ccc(O)cc1)NC(C)=O`, the results for the log K in assay [1] and in assay [2] were 3.7 and 2.3, respectively. Also, the log(1/Km) in assay [3] stood at 3.15. The logKcat in assay [4] came to 2.28.
As to `COc1ccc(C(=O)Oc2ccc([N+](=O)[O-])cc2[N+](=O)[O-])cc1`, the log K in assay [1] is 4.96.
Consider `CCOC(=O)[C@H](C)NC(=O)c1ccccc1`, for which the log K is -1.16 in assay [1] and -0.22 in assay [2]. Also, the log(1/Km) in assay [3] is 2.22. Further, the logKcat in assay [4] is -1.16.
Consider `COC(=O)[C@@H](NC(=O)c1ccccc1)C(C)C`, for which the log K in assay [1] was -1.04; in assay [2], -0.66. In addition, the log(1/Km) in assay [3] turned out to be 2.34. Further, the logKcat in assay [4] was -1.19.
Consider `COC(=O)[C@H](CC(C)C)NC(C)=O`, for which the log K in assay [2] amounted to 1.2. The compound further showed a log(1/Km) in assay [3] of 2.42. Also, in assay [4], the logKcat stood at 0.7.
On to `O=C(Oc1ccc([N+](=O)[O-])cc1[N+](=O)[O-])c1cccc(Cl)c1`, for which the log K in assay [1] worked out at 5.47.
Consider `CCCC[C@H](NC(C)=O)C(=O)OC`, for which the values for the log K in assay [1] and in assay [2] were 2.01 and 1.28, respectively. Also, in assay [3], the log(1/Km) amounted to 2.17. Besides, the logKcat in assay [4] amounted to 0.92.
On to `CC(C)c1ccc(C(=O)Oc2ccc([N+](=O)[O-])cc2)cc1`, for which the log K in assay [1] came to 4.44.
For `CCOC(=O)[C@H](Cc1ccc(O)cc1)NC(=O)c1ccccc1`, the log K was 2.4 in assay [1] and 2.12 in assay [2]. In assay [3], the log(1/Km) turned out to be 4.66. For the same compound, the logKcat in assay [4] worked out at 1.93.
For the compound `CC(C)(C)c1ccc(C(=O)Oc2ccc([N+](=O)[O-])cc2)cc1`, the log K in assay [1] was determined as 4.07.
The same measure, in the same setting: as for `Cc1cccc(C(=O)Oc2ccc([N+](=O)[O-])cc2[N+](=O)[O-])c1`, the figure is 4.75.
With `CCC[C@H](NC(C)=O)C(=O)OC`, the log K in assay [1] is 1.55; in assay [2] it was 0.77. The compound further displayed a log(1/Km) in assay [3] of 1.99. Also, the logKcat in assay [4] worked out at 0.43.
Consider `O=C(Oc1ccc([N+](=O)[O-])cc1[N+](=O)[O-])c1ccccc1`, for which, in assay [1], the log K was 4.86.
With `O=C(Oc1ccc([N+](=O)[O-])cc1[N+](=O)[O-])c1cccc(C(F)(F)F)c1`, the log K in assay [1] was determined as 5.47.
Still for that read-out and setting: as for `Cc1cccc(C(=O)Oc2ccc([N+](=O)[O-])cc2)c1`, the figure is 3.29.
As to `O=C(Oc1ccc([N+](=O)[O-])cc1[N+](=O)[O-])c1ccc(Cl)cc1`, in assay [1], the log K was 5.55.
Take `CS(=O)(=O)N[C@@H](Cc1ccccc1)C(=O)Oc1cccc([N+](=O)[O-])c1`: the log(1/Km) in assay [3] is 5.06. In addition, the logKcat in assay [4] stood at 1.49.
The matching figures for `CCOC(=O)[C@@H](NC(C)=O)c1ccccc1`: 2.48 and -0.05.
The matching figures for `CCCCC[C@H](NC(C)=O)C(=O)OC`: 2.79 and 1.13.
Taken in the same sequence, the figures for `CC[C@H](C)OC(=O)[C@H](Cc1ccccc1)NC(C)=O` were 3.04 and 1.55.
On to `COC(=O)[C@H](C)NC(=O)c1ccccc1`, for which, in assay [3], the log(1/Km) turned out to be 2.01. The logKcat in assay [4] was -0.64.
Taken in the same sequence, the figures for `O=C(CNC(=O)c1ccccc1)Oc1ccc([N+](=O)[O-])cc1` were 4.06 and -0.31.
In turn, `Nc1ccc(OC(=O)CNC(=O)c2ccccc2)cc1` registered a log(1/Km) in assay [3] of 3.77. The logKcat in assay [4] was -0.3.
Regarding `CCCOC(=O)CNC(=O)c1ccccc1`, the log(1/Km) in assay [3] was 2.72. Moreover, in assay [4], the logKcat was -0.9.
Taken in the same sequence, the figures for `CCCCCC[C@H](NC(C)=O)C(=O)OC` were 2.53 and 0.79.
Compound `CS(=O)(=O)N[C@@H](Cc1ccccc1)C(=O)Oc1ccc(Cl)cc1` came in with a log(1/Km) in assay [3] of 4.88. Further, the log K in assay [4] is 1.56.
On to `CC(=O)N[C@@H](Cc1ccccc1)C(=O)O[C@H](C)c1ccccc1`, for which, in assay [3], the log(1/Km) worked out at 4.3. Moreover, the logKcat in assay [4] was 2.02.
For `COC(=O)[C@H](C)NC(=O)c1ccccn1`, the log(1/Km) in assay [3] turned out to be 1.74. Moreover, the logKcat in assay [4] was -1.15.
The matching figures for `CC(=O)N[C@@H](Cc1ccccc1)C(=O)Oc1ccc([N+](=O)[O-])cc1`: 4.62 and 1.89.
`N#Cc1ccc(C(=O)Oc2ccc([N+](=O)[O-])cc2[N+](=O)[O-])cc1`: the log K in assay [1] came to 5.94.
In the case of `O=C(CNC(=O)c1ccccc1)OCc1ccncc1`, the log(1/Km) in assay [3] is 4.04. Moreover, the logKcat in assay [4] was -0.25.
Taken in the same sequence, the figures for `C[C@H](OC(=O)CNC(=O)c1ccccc1)c1ccccc1` were 3.77 and -0.13.
The matching figures for `COc1ccc(OC(=O)CNC(=O)c2ccccc2)cc1`: 3.99 and -0.25.
Taken in the same sequence, the figures for `CC(C)OC(=O)CNC(=O)c1ccccc1` were 2.69 and -1.32.
Compound `COC(=O)[C@H](C)NC(=O)c1ccccc1N` showed a log(1/Km) in assay [3] of 2.33. For the same compound, the logKcat in assay [4] was -0.62.
On to `O=C(Oc1ccc([N+](=O)[O-])cc1[N+](=O)[O-])c1ccc(C(F)(F)F)cc1`, for which, in assay [1], the log K worked out at 6.4.
Still for that read-out and setting: as for `Cc1ccc(C(=O)Oc2ccc([N+](=O)[O-])cc2[N+](=O)[O-])cc1`, the figure is 5.22.
Compound `COC(=O)[C@H](C)NC(=O)c1cccs1` came in with a log(1/Km) in assay [3] of 1.82. Moreover, the logKcat in assay [4] is -0.34.
With `CC(=O)NCC(=O)Oc1ccc([N+](=O)[O-])cc1`, in assay [2], the log K was -0.12. For the same compound, in assay [3], the log(1/Km) came to 3.4. The logKcat in assay [4] came out at 0.27.
`CC(=O)c1ccc(OC(=O)[C@H](Cc2ccccc2)NS(C)(=O)=O)cc1` showed a log(1/Km) in assay [3] of 4.89. Also, the logKcat in assay [4] is 1.54.
Regarding `COC(=O)[C@H](C)NC(=O)c1cccnc1`, in assay [3], the log(1/Km) worked out at 1.43. Also, in assay [4], the logKcat was -0.24.
Consider `CC(C)c1ccc(C(=O)Oc2ccc([N+](=O)[O-])cc2[N+](=O)[O-])cc1`, for which, in assay [1], the log K was determined as 5.99.
With `O=C(Oc1ccc([N+](=O)[O-])cc1[N+](=O)[O-])c1ccc(F)cc1`, the log K in assay [1] was 4.83.
Turning to `Cc1ccc(OC(=O)[C@H](Cc2ccccc2)NS(C)(=O)=O)cc1`, the log(1/Km) in assay [3] was found to be 4.7. Further, the log K in assay [4] came to 1.56.
Take `CC[C@H](C)OC(=O)CNC(=O)c1ccccc1`: the log(1/Km) in assay [3] was found to be 2.95. For the same compound, in assay [4], the logKcat was -1.04.
The matching figures for `CS(=O)(=O)N[C@@H](Cc1ccccc1)C(=O)Oc1ccccc1`: 4.57 and 1.51.
For `CC(=O)N[C@@H](Cc1ccccc1)C(=O)O[C@@H](C)c1ccccc1`, in assay [3], the log(1/Km) amounted to 4.22. In addition, in assay [4], the logKcat came to 2.04.
The matching figures for `COC(=O)[C@H](C)NC(=O)c1ccc2ccccc2n1`: 3.66 and -2.4.
The compound `CC(=O)N[C@@H](Cc1ccccc1)C(=O)O[C@H](C)C1CCCCC1` registered a log(1/Km) in assay [3] of 3.31. Further, in assay [4], the logKcat turned out to be 1.29.
Taken in the same sequence, the figures for `Cc1ccc(OC(=O)CNC(=O)c2ccccc2)cc1` were 3.87 and -0.21.
